# Data published in patent publication US20230051589A1, “COMPOUNDS AND COMPOSITIONS FOR TREATING CONDITIONS ASSOCIATED WITH NLRP ACTIVITY” (Novartis AG, priority 2018, published 2023).
# pIC50: −log10 of the molar value.
# Test system: IL-1β production in PMA-differentiated THP-1 cells
# Assay: IL-1β production in PMA-differentiated THP-1 cells stimulated with gramicidin (hTHP-1 assay, 2% fetal bovine serum; Procedures 1-3)
# Format: cell-based, human
# Details: Homo sapiens, THP-1, Table B3; hTHP-1 assay containing 2% fetal bovine serum, gramicidin stimulation, IL-1β readout; read-out: hTHP-1 IC50
# Summary of the method: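 IL-1β released into supernatants was read by HTRF after 2 h gramicidin (5 μM) challenge. Before challenge, compounds (3-fold dilutions, top 100 μM, 0.37% DMSO) were given 1 h on THP-1 cells differentiated with PMA (20 ng/ml, 16-18 h) and held in 2% FBS medium.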
row,pIC50,Structure (SMILES)
1,6.00 to 6.70,"NS(=O)(=NC(=O)Nc1c2c(cc3c1CCC3)CCC2)c1sc(CNC2CCC2)cc1F (stereo not shown) [Example 726, 5-((Cyclobutylamino)methyl)-3-fluoro-N′-((1,2,3,5,6,7-hexahydro-s-indacen-4-yl)carbamoyl)thiophene-2-sulfonimidamide]"
2,5.30 to 6.00,"CN(Cc1ccc(S(N)(=O)=NC(=O)Nc2c3c(cc4c2CC4)CCC3)c(F)c1)C1CCC1 (stereo not shown) [Example 727, 4-((cyclobutyl(methyl)amino)methyl)-2-fluoro-N′-((2,4,5,6-tetrahydro-1H-cyclobuta[f]inden-3-yl)carbamoyl)benzenesulfonimidamide]"
3,6.00 to 6.70,"NS(=O)(=NC(=O)Nc1c2c(cc3c1CCC3)CCC2)c1ccc(-c2ccccc2CO)s1 (stereo not shown) [Example 728, N′-((1,2,3,5,6,7-hexahydro-s-indacen-4-yl)carbamoyl)-5-(2-(hydroxymethyl)phenyl)thiophene-2-sulfonimidamide]"
4,5.30 to 6.00,"NS(=O)(=NC(=O)Nc1c2c(cc3c1CCC3)CCC2)c1ccc(-c2ccccc2O)s1 (stereo not shown) [Example 729, N′-((1,2,3,5,6,7-hexahydro-s-indacen-4-yl)carbamoyl)-5-(2-hydroxyphenyl)thiophene-2-sulfonimidamide]"
5,6.00 to 6.70,"NS(=O)(=NC(=O)Nc1c2c(cc3c1CCC3)CCC2)c1ccc([C@@H]2CCCN2)s1 (stereo partly drawn) [Example 730, N′-((1,2,3,5,6,7-hexahydro-s-indacen-4-yl)carbamoyl)-5-((S)-pyrrolidin-2-yl)thiophene-2-sulfonimidamide]"
6,6.00 to 6.70,"NS(=O)(=NC(=O)Nc1c2c(cc3c1CCC3)CCC2)c1ccc([C@H]2CCCN2)s1 (stereo partly drawn) [Example 731, N′-((1,2,3,5,6,7-hexahydro-s-indacen-4-yl)carbamoyl)-5-((R)-pyrrolidin-2-yl)thiophene-2-sulfonimidamide]"
7,7.40 to 8.10,"NS(=O)(=NC(=O)Nc1c2c(cc3c1CC3)CCC2)c1sc2c(c1F)CNCC2 (stereo not shown) [Example 732, 3-Fluoro-N′-((2,4,5,6-tetrahydro-1H-cyclobuta[f]inden-3-yl)carbamoyl)-4,5,6,7-tetrahydrothieno[3,2-c]pyridine-2-sulfonimidamide]"
8,6.70 to 7.40,"NS(=O)(=NC(=O)Nc1c2c(cc3c1CCC3)CCC2)c1sc(C(O)(CO)CO)nc1CO (stereo not shown) [Example 733, N′-((1,2,3,5,6,7-hexahydro-s-indacen-4-yl)carbamoyl)-4-(hydroxymethyl)-2-(1,2,3-trihydroxypropan-2-yl)thiazole-5-sulfonimidamide]"
9,5.30 to 6.00,"CN(C)Cc1ccc(S(N)(=O)=NC(=O)Nc2c3c(cc4c2CCC4)CCC3)s1 (stereo not shown) [Example 735, 5-((Dimethylamino)methyl)-N-((1,2,3,5,6,7-hexahydro-s-indacen-4-yl)carbamoyl)thiophene-2-sulfonimidamide]"
10,6.00 to 6.70,"CCn1ccc(S(N)(=O)=NC(=O)Nc2c3c(cc4c2CCC4)CCC3)n1 (stereo not shown) [Example 736, 1-Ethyl-N′-((1,2,3,5,6,7-hexahydro-s-indacen-4-yl)carbamoyl)-1H-pyrazole-3-sulfonimidamide]"
11,6.00 to 6.70,"CCn1ccc(S(N)(=O)=NC(=O)Nc2c3c(cc4c2CC4)CCC3)n1 (stereo not shown) [Example 737, 1-Ethyl-N′-((2,4,5,6-tetrahydro-1H-cyclobuta[f]inden-3-yl)carbamoyl)-1H-pyrazole-3-sulfonimidamide]"
12,5.30 to 6.00,"CC(C)(O)c1nc(CO)c(S(N)(=O)=NC(=O)Nc2c3c(cc4c2C(=O)CC4)CCC3)s1 (stereo not shown) [Example 738, 4-(Hydroxymethyl)-2-(2-hydroxypropan-2-yl)-N-((3-oxo-1,2,3,5,6,7-hexahydro-s-indacen-4-yl)carbamoyl)thiazole-5-sulfonimidamide]"
13,6.00 to 6.70,"CC(C)n1nc(S(N)(=O)=NC(=O)Nc2c3c(cc4c2C(=O)CC4)CCC3)cc1C(C)(C)O (stereo not shown) [Example 740, 5-(2-Hydroxypropan-2-yl)-1-isopropyl-N′-((3-oxo-1,2,3,5,6,7-hexahydro-s-indacen-4-yl)carbamoyl)-1H-pyrazole-3-sulfonimidamide]"
14,7.40 to 8.10,"C[C@](O)(CO)c1ncc(S(N)(=O)=NC(=O)Nc2c3c(cc4c2CC4)CCC3)s1 (stereo partly drawn) [Example 741, 2-((S)-1,2-dihydroxypropan-2-yl)-N′-((2,4,5,6-tetrahydro-1H-cyclobuta[f]inden-3-yl)carbamoyl)thiazole-5-sulfonimidamide]"
15,7.40 to 8.10,"C[C@@](O)(CO)c1ncc(S(N)(=O)=NC(=O)Nc2c3c(cc4c2CC4)CCC3)s1 (stereo partly drawn) [Example 742, 2-((R)-1,2-dihydroxypropan-2-yl)-N′-((2,4,5,6-tetrahydro-1H-cyclobuta[f]inden-3-yl)carbamoyl)thiazole-5-sulfonimidamide]"
16,6.00 to 6.70,"C[C@@](O)(CO)c1ncc(S(N)(=O)=NC(=O)Nc2c3c(cc4c2C(=O)CC4)CCC3)s1 (stereo partly drawn) [Example 743, 2-((R)-1,2-dihydroxypropan-2-yl)-N′-((3-oxo-1,2,3,5,6,7-hexahydro-s-indacen-4-yl)carbamoyl)thiazole-5-sulfonimidamide]"
17,6.70 to 7.40,"C[C@](O)(CO)c1ncc(S(N)(=O)=NC(=O)Nc2c3c(cc4c2C(=O)CC4)CCC3)s1 (stereo partly drawn) [Example 744, 2-((S)-1,2-dihydroxypropan-2-yl)-N′-((3-oxo-1,2,3,5,6,7-hexahydro-s-indacen-4-yl)carbamoyl)thiazole-5-sulfonimidamide]"
18,6.70 to 7.40,"C[C@](O)(COCCO)c1ccc([S@@](N)(=O)=NC(=O)Nc2c3c(cc4c2CCC4)CCC3)s1 [Example 748, (S)-N′-((1,2,3,5,6,7-hexahydro-s-indacen-4-yl)carbamoyl)-5-((S)-2-hydroxy-1-(2-hydroxyethoxy)propan-2-yl)thiophene-2-sulfonimidamide]"
19,6.00 to 6.70,"C[C@](O)(COCCO)c1ccc([S@](N)(=O)=NC(=O)Nc2c3c(cc4c2CCC4)CCC3)s1 [Example 749, (R)-N′-((1,2,3,5,6,7-hexahydro-s-indacen-4-yl)carbamoyl)-5-((S)-2-hydroxy-1-(2-hydroxyethoxy)propan-2-yl)thiophene-2-sulfonimidamide]"
20,4.52 to 5.30,"C[C@](O)(COCCOCCOCCOCCO)c1ncc(S(N)(=O)=NC(=O)Nc2c3c(cc4c2CCC4)CCC3)s1 (stereo partly drawn) [Example 750, 2-((S)-1,14-dihydroxy-3,6,9,12-tetraoxapentadecan-14-yl)-N′-((1,2,3,5,6,7-hexahydro-s-indacen-4-yl)carbamoyl)thiazole-5-sulfonimidamide]"
21,5.30 to 6.00,"NS(=O)(=NC(=O)Nc1c2c(cc3c1CCC3)CCC2)c1cnc(C(O)(COCCO)COCCO)s1 (stereo not shown) [Example 751, N′-((1,2,3,5,6,7-hexahydro-s-indacen-4-yl)carbamoyl)-2-(2-hydroxy-1,3-bis(2-hydroxyethoxy)propan-2-yl)thiazole-5-sulfonimidamide]"
22,5.30 to 6.00,"CN(C)C1CCc2cc(S(N)(=O)=NC(=O)Nc3c4c(cc5c3CCC5)CCC4)sc2C1 (stereo not shown) [Example 752, 6-(Dimethylamino)-N′-((1,2,3,5,6,7-hexahydro-s-indacen-4-yl)carbamoyl)-4,5,6,7-tetrahydrobenzo[b]thiophene-2-sulfonimidamide]"
23,6.70 to 7.40,"CC(O)(CO)c1nc(CO)c(S(N)(=O)=NC(=O)Nc2c3c(cc4c2CCC4)CCC3)s1 (stereo not shown) [Example 753, 2-(1,2-Dihydroxypropan-2-yl)-N′-((1,2,3,5,6,7-hexahydro-s-indacen-4-yl)carbamoyl)-4-(hydroxymethyl)thiazole-5-sulfonimidamide]"
24,6.70 to 7.40,"CC(CO)(CO)c1ncc(S(N)(=O)=NC(=O)Nc2c3c(cc4c2CCC4)CCC3)s1 (stereo not shown) [Example 756, 2-(1,3-Dihydroxy-2-methylpropan-2-yl)-N′-((1,2,3,5,6,7-hexahydro-s-indacen-4-yl)carbamoyl)thiazole-5-sulfonimidamide]"
25,6.70 to 7.40,"CC(O)(CO)c1nc(CO)c(S(N)(=O)=NC(=O)Nc2c3c(cc4c2CC4)CCC3)s1 (stereo not shown) [Example 757, 2-(1,2-Dihydroxypropan-2-yl)-4-(hydroxymethyl)-N′-((2,4,5,6-tetrahydro-1H-cyclobuta[f]inden-3-yl)carbamoyl)thiazole-5-sulfonimidamide]"
26,6.00 to 6.70,"NS(=O)(=NC(=O)Nc1c2c(cc3c1CCC3)CCC2)c1cc2c(s1)CCOC2 (stereo not shown) [Example 758, N′-((1,2,3,5,6,7-hexahydro-s-indacen-4-yl)carbamoyl)-6,7-dihydro-4H-thieno[3,2-c]pyran-2-sulfonimidamide]"
27,4.52 to 5.30,"NS(=O)(=NC(=O)Nc1c2c(cc3c1CCC3)CCC2)c1ccc(-c2ccccc2)s1 (stereo not shown) [Example 759, N′-((1,2,3,5,6,7-hexahydro-s-indacen-4-yl)carbamoyl)-5-phenylthiophene-2-sulfonimidamide]"
28,6.00 to 6.70,"CC(C)(O)c1sc(S(N)(=O)=NC(=O)Nc2c3c(cc4c2CCC4)CCC3)cc1-c1ccccc1 (stereo not shown) [Example 760, N′-((1,2,3,5,6,7-hexahydro-s-indacen-4-yl)carbamoyl)-5-(2-hydroxypropan-2-yl)-4-phenylthiophene-2-sulfonimidamide]"

# Same assay, conditions: Table B3; hTHP-1 assay containing 2% fetal bovine serum, gramicidin stimulation, IL-1β readout; read-out: hTHP-1 IC50
row,pIC50,Structure (SMILES)
1,6.00 to 6.70,"CC(NC1CCC1)c1ccc(S(N)(=O)=NC(=O)Nc2c3c(cc4c2CC4)CCC3)c(F)c1 (stereo not shown) [Example 725, 4-(1-(cyclobutylamino)ethyl)-2-fluoro-N′-((2,4,5,6-tetrahydro-1H-cyclobuta[f]inden-3-yl)carbamoyl)benzenesulfonimidamide]"
2,5.30 to 6.00,"CC1=CC(C)=[N+]2C1=Cc1ccc(CCC(=O)N(C)Cc3ccc([S@@](=N)(=O)NC(=O)Nc4c5c(cc6c4CCC6)CCC5)cc3)n1[B-]2(F)F [Example 745, (S)-3-(5,5-difluoro-7,9-dimethyl-5H-5λ4,6λ4-dipyrrolo[1,2-c:2′,1′-f][1,3,2]diazaborinin-3-yl)-N-(4-(N′-((1,2,3,5,6,7-hexahydro-s-indacen-4-yl)carbamoyl)sulfamidimidoyl)benzyl)-N-methylpropanamide]"
3,6.70 to 7.40,"C[C@@](O)(CO)c1nc(CO)c(S(N)(=O)=NC(=O)Nc2c3c(cc4c2CCC4)CCC3)s1 (stereo partly drawn) [Example 754, 2-((R)-1,2-dihydroxypropan-2-yl)-N′-((1,2,3,5,6,7-hexahydro-s-indacen-4-yl)carbamoyl)-4-(hydroxymethyl)thiazole-5-sulfommidamide]"
